Measurements reported in article PMC12302338, “Functional genomics and structural insights into maize aldo-keto reductase-4 family: Stress metabolism and substrate specificity in embryos” (The Journal of Biological Chemistry, 2025).

Biological target: T1, ZmAKR4C13 (Zea mays, UniProt E9JVD4)
T1 construct: gene AR3; monomer
Assay: X-ray crystallography
Format: binding
Conditions: 5JGW 2.30 Å (P2_12_12_1); 5JGY 1.45 Å (P2_1), partial occupancy
Description: X-ray crystallography on ZmAKR4C13 | b32; b72

T1 sequence (E9JVD4 1-319): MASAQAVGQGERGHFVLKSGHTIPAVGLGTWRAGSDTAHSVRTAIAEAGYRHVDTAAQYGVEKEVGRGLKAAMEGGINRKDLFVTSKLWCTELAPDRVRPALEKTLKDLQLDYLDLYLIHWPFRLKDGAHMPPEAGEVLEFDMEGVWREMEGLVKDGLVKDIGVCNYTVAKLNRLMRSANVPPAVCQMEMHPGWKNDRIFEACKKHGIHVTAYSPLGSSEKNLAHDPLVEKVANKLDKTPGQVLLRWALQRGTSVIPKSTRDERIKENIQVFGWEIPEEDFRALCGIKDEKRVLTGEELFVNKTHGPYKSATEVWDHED

- X-ray crystallography: b32; b72
Structure (SMILES): NC(=O)c1ccc[n+]([C@@H]2O[C@H](COP(=O)(O)OP(=O)(O)OC[C@H]3O[C@@H](n4cnc5c(N)ncnc54)[C@H](OP(=O)(O)O)[C@@H]3O)[C@@H](O)[C@H]2O)c1 [NADP+]
